The subject of assay [1] is HCV GT1b replicon (2209-23 cell line, GT-1b Con1 subgenomic replicon in Huh-7). As to the kind of experiment: HCV GT1b replicon luciferase reporter assay. Type of assay: cell-based. The note with it: Hepatitis C virus. The text has this:
Determination of compounds HCV GT1b inhibitory replicon activity using the replicon luciferase reporter assay
The 2209-23 cell line was developed at Roche by stable transfection of the hepatoma cell line Huh-7 with a GT-1b Con1 subgenomic bicistronic replicon as previously described. Subgenomic replicon cell line was established in cured Huh7 cells, obtained from R. Bartenschlager (J. Virol. 2003 March; 77 (5):3007-19) The GT-1a H77 subgenomic replicon vector pRLuc H771b 75 S/I, was created by replacing the non structural region of the GT-1b Con1 subgenomic replicon by the one of the H77 strain, except for the first 75 amino acids of the NS3 protein that are from GT-1b Con1 strain. (J. Virol. 2001 77:5352-59) The GT-1a pRLuc H771b 75 S/I subgenomic replicon cell line was established in cured Huh7 cells, obtained from R. Bartenschlager. (J. Virol. 2003 March; 77 (5):3007-19)
All the subgenomic replicon cell lines were cultured in Dulbecco's Modified Eagle Medium (DMEM-Glutamax™-I; Invitrogen Cat #10569-010). The medium was supplemented with 10% Fetal Bovine Serum (Invitrogen Cat #10082-147), 1% penicillin/streptomycin (Mediatech Cat #30-002-CI) and 500 μg/ml of G418 (Mediatech Cat #30-234-CI). Cells were maintained at 37° C. in a humidified 5% CO2 atmosphere.
2209-23 cells were plated at a cell density of 5000 cells per well in 96 well plates (Becton Dickinson, Cat #35 3296). Cells were plated in 90 μl of Dulbecco's Modified Eagle Medium (DMEM-Glutamax™-I), (Invitrogen Cat #10569-010) medium was supplemented with 5% Fetal Bovine Serum (Invitrogen Cat #10082-147), 1% penicillin/streptomycin (Mediatech Cat #30-002-CI). The pRluc H771b 75 S/I cells were plated in 96-well plate at 3000 cells/well in DMEM-Glutamax™-I containing 5% FBS and 1% penicillin/streptomycin in 90 μl final volume. Cells were allowed to equilibrate for 24 hours at 37° C. and 5% CO2 at which time compounds were added. Compounds (or medium as a control) were added 24 hours post-plating in 3 fold dilutions at a final DMSO concentration of 1% in 10 ul volume. Renilla luciferase reporter signal was read 72 hours after addition of compounds using the Renilla Luciferase Assay System (Promega, cat #E2820). EC50 values were defined as the compound concentration at which a 50% reduction in the levels of renilla luciferase reporter was observed as compared to control samples in the absence of compound and was determined by non-linear fitting of compound dose-response data. The EC50 was approximated if maximum percentage inhibition was less than 90% and more than 70%.
Background: Replicon systems follow genome replication, usually without infectious particles.

Assay [2] has as its system GT-1a pRLuc H771b 75 S/I subgenomic replicon cell line. As to the kind of experiment: HCV GT-1a replicon luciferase reporter assay. The class given is cell-based. The note with it: Hepatitis C virus, GT1A, 72 h, read-out: GT-1a (IC50) (nM). The gist of the method: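 Huh-7-derived subgenomic replicon cells (GT-1b Con1 2209-23, 5000/well; GT-1a H77 chimera with Con1 NS3 first 75 aa, 3000/well) in 5% FBS DMEM; compounds added 24 h post-plating, 3-fold dilutions, 1% DMSO. Renilla luciferase read after 72 h; EC50 is 50% signal reduction versus untreated, non-linear fit.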

Setting [3] is: Huh-7, 2209-23 cells (GT-1b Con1), Renilla luciferase read 72 hours after addition of compounds, read-out: GT-1b (IC50).
Where [4] appears, read: Huh-7, 2209-23 cells (GT-1b Con1), Renilla luciferase read 72 hours after addition of compounds.

These results are taken from patent US20120230951A1 (priority 2011, published 2012).

Structures can show the parent of a compound that is named as a salt. Where two headings read alike, the source gives them in different places.

For the compound `COC(=O)N[C@H]1CCc2cccc3c2N(C1=O)[C@H](c1ncc(-c2cnc4cc(-c5ccc(-c6cnc([C@@H]7CC(F)(F)CN7C(=O)[C@@H](NC(=O)OC)C(C)C)[nH]6)cc5)ccc4c2)[nH]1)C3` [Compound I-19, ((2S,5S)-2-{5-[7-(4-{2-[(S)-1-((S)-2-Methoxycarbonylamino-3-methyl-butyryl)-4,4-difluoro-pyrrolidin-2-yl]-3H-imidazol-4-yl}-phenyl)-quinolin-3-yl]-1H-imidazol-2-yl}-4-oxo-1,2,4,5,6,7-hexahydro-azepino[3,2,1-hi]indol-5-yl)-carbamic acid methyl ester trifluroacetic acid], the IC50 (usually the concentration at which inhibition is half-maximal) in assay [1] (Huh-7, 72 h, read-out: GT-1b (IC50) (nM)) came out at 0.16 nM; in assay [2], 2.89 nM.

For the compound `COC(=O)N[C@H]1CCc2cccc3c2N(C1=O)[C@H](c1nc2ccc(-c4ccc(-c5ccc(-c6cnc([C@@H]7CCCN7C(=O)[C@@H](NC(=O)OC)C(C)C)[nH]6)cc5)cc4)cc2[nH]1)C3` [Compound I-11, {(2S,5S)-2-[6-(4′-{2-[(S)-1-((S)-2-Methoxycarbonylamino-3-methyl-butyryl)-pyrrolidin-2-yl]-3H-imidazol-4-yl}-biphenyl-4-yl)-1H-benzoimidazol-2-yl]-4-oxo-1,2,4,5,6,7-hexahydro-azepino[3,2,1-hi]indol-5-yl}-carbamic methyl ester], the IC50 in assay [1] (setting [3]) worked out at 2.82 nM; in assay [2], 19.2 nM.

As to `COC(=O)N[C@H]1CCc2cccc3c2N(C1=O)[C@H](c1ncc(-c2ccc4nc(-c5ccc(-c6cnc([C@@H]7CCCN7C(=O)[C@@H](NC(=O)OC)C(C)C)[nH]6)cc5)cnc4c2)[nH]1)C3` [Compound I-59, ((2S,5S)-2-{5-[2-(4-{2-[(S)-1-((S)-2-Methoxycarbonylamino-3-methyl-butyryl)-pyrrolidin-2-yl]-3H-imidazol-4-yl}-phenyl)-quinoxalin-6-yl]-1H-imidazol-2-yl}-4-oxo-1,2,4,5,6,7-hexahydro-azepino[3,2,1-hi]indol-5-yl)-carbamic acid methyl ester], the IC50 in assay [1] (setting [3]) stood at 0.07 nM; in assay [2], 0.709 nM.

As to `COC(=O)N[C@H]1CCc2cccc3c2N(C1=O)[C@H](c1nc2ccc(-c4ccc(-c5ccc6nc([C@@H]7CCCN7C(=O)[C@@H](NC(=O)OC)C(C)C)[nH]c6c5)cc4)cc2[nH]1)C3` [Compound I-5, {(2S,5S)-2-[6-(4-{2-[(S)-1-((S)-2-Methoxycarbonylamino-3-methyl-butyryl)-pyrrolidin-2-yl]-3H-benzoimidazol-5-yl}-phenyl)-1H-benzoimidazol-2-yl]-4-oxo-1,2,4,5,6,7-hexahydro-azepino[3,2,1-hi]indol-5-yl}-carbamic acid methyl ester], the IC50 in assay [1] (setting [3]) came out at 0.093 nM; in assay [2], 49.8 nM.

Take `COC(=O)N[C@H]1CCc2cccc3c2N(C1=O)[C@H](c1ncc(-c2ccc(-c4ccc(-c5cnc([C@@H]6CCCN7C(=O)CC[C@H](NC(=O)OC)C(=O)N67)[nH]5)cc4)cc2)[nH]1)C3` [Compound I-67]: the EC50 (commonly the concentration at which the effect is half-maximal) in assay [1] (setting [4]) is 0.528 nM.

As for `COC(=O)N[C@H]1CCc2cccc3c2N(C1=O)[C@H](c1ncc(-c2ccc(-c4ccc(-c5cnc([C@@H]6CCCN6C(=O)[C@@H](NC(=O)OC)C(C)C)[nH]5)cc4)cc2)[nH]1)C3` [Compound I-66, {(2S,5S)-2-[5-(4′-{2-[(S)-1-((S)-2-Methoxycarbonylamino-3-methyl-butyryl)-pyrrolidin-2-yl]-3H-imidazol-4-yl}-biphenyl-4-yl)-1H-imidazol-2-yl]-4-oxo-1,2,4,5,6,7-hexahydro-azepino[3,2,1-hi]indol-5-yl}-carbamic acid methyl ester], the EC50 in assay [1] (setting [4]) is 0.036 nM.

In assay [1] (setting [4]), `COC(=O)N[C@H]1CCc2cccc3c2N(C1=O)[C@H](c1nc2ccc(-c4ccc5cc(-c6cnc([C@@H]7CCCN7C(=O)[C@@H](NC(=O)OC)C(C)C)[nH]6)ccc5c4)cc2[nH]1)C3` [Compound I-68] displayed an EC50 of 0.062 nM.

`COC(=O)N[C@H]1CCc2cccc3c2N(C1=O)[C@H](c1ncc(-c2ccc(-c4ccc(-c5cnc([C@@H]6C[C@H](F)CN6C(=O)[C@@H](NC(=O)OC)C(C)C)[nH]5)cc4)cc2)[nH]1)C3` [Compound I-1, {(2S,5S)-2-[5-(4′-{2-[(2S,4S)-4-Fluoro-1-((S)-2-methoxycarbonylamino-3-methyl-butyryl)-pyrrolidin-2-yl]-3H-imidazol-4-yl}biphenyl-4-yl)-1H-imidazol-2-yl]-4-oxo-1,2,4,5,6,7-hexahydro-azepino[3,2,1-hi]indol-5-yl}-carbamic acid methyl ester]: the IC50 in assay [2] was determined as 6.33 nM.

Take `COC(=O)N[C@H]1CCc2cccc3c2N(C1=O)[C@H](c1ncc(-c2ccc4nc(-c5ccc(-c6cnc([C@@H]7CCCN7C(=O)[C@@H](NC(=O)OC)C(C)C)[nH]6)cc5)ccc4c2)[nH]1)C3` [Compound I-22, ((2S,5S)-2-{5-[2-(4-{2-[(S)-1-((S)-2-Methoxycarbonylamino-3-methyl-butyryl)-pyrrolidin-2-yl]-1H-imidazol-4-yl}-phenyl)-quinolin-6-yl]-1H-imidazol-2-yl}-4-oxo-1,2,4,5,6,7-hexahydro-azepino[3,2,1-hi]indol-5-yl)-carbamic acid methyl ester trifluroacetic acid, trifluoroacetic acid salt]: the IC50 in assay [2] is 1.45 nM.

In the case of `COC(=O)N[C@H]1CCc2cccc3c2N(C1=O)[C@H](c1ncc(-c2ccc(-c4ccc(-c5cnc([C@@H]6C[C@H](C#N)CN6C(=O)[C@@H](NC(=O)OC)C(C)C)[nH]5)cc4)cc2)[nH]1)C3` [Compound I-40, {(2S,5S)-2-[5-(4′-{2-[(2S,4S)-4-Cyano-1-((S)-2-methoxycarbonylamino-3-methyl-butyryl)-pyrrolidin-2-yl]-3H-imidazol-4-yl}-biphenyl-4-yl)-1H-imidazol-2-yl]-4-oxo-1,2,4,5,6,7-hexahydro-azepino[3,2,1-hi]indol-5-yl}-carbamic acid methyl ester], the IC50 in assay [2] came out at 7.85 nM.

Take `COC(=O)N[C@H]1CCc2cccc3c2N(C1=O)[C@H](c1ncc(-c2ccc(-c4ccc(-c5cnc([C@@H]6CCCN6C(=O)C6(NC(=O)OC)COC6)[nH]5)cc4)cc2)[nH]1)C3` [Compound I-47]: the IC50 in assay [2] is 110 nM.

`COC(=O)N[C@H]1CCc2cccc3c2N(C1=O)[C@H](c1ncc(-c2ccc(-c4ccc(-c5cnc([C@@H]6CCCN6C(=O)[C@@H](NC(=O)OC)C(C)C)[nH]5)cc4F)cc2)[nH]1)C3` [Compound I-37, {(2S,5S)-2-[5-(2′-Fluoro-4′-{2-[(S)-1-((S)-2-methoxycarbonylamino-3-methyl-butyryl)-pyrrolidin-2-yl]-1H-imidazol-4-yl}-biphenyl-4-yl)-1H-imidazol-2-yl]-4-oxo-1,2,4,5,6,7-hexahydro-azepino[3,2,1-hi]indol-5-yl}-carbamic acid methyl ester]: the IC50 in assay [2] was found to be 5.22 nM.

For the compound `COC(=O)N[C@H]1CCc2cccc3c2N(C1=O)[C@H](c1ncc(-c2ccc4cc(-c5ccc(-c6cnc([C@@H]7CCCN7C(=O)[C@@H](NC(=O)OC)C(C)C)[nH]6)cn5)ccc4c2)[nH]1)C3` [Compound I-24, ((2S,5S)-2-{4-[6-(5-{2-[(S)-1-((S)-2-Methoxycarbonylamino-3-methyl-butyryl)-pyrrolidin-2-yl]-3H-imidazol-4-yl}-pyridin-2-yl)-naphthalen-2-yl]-1H-imidazol-2-yl}-4-oxo-1,2,4,5,6,7-hexahydro-azepino[3,2,1-hi]indol-5-yl)-carbamic acid methyl ester di-trifluoroacetic acid salt], the IC50 in assay [2] stood at 1.16 nM.
